Results as given in patent US8778412B2, “Methods for increasing the stabilization of hypoxia inducible factor-1 alpha” (Aerpio Therapeutics Inc., priority 2009, dated 2014).

How the values were obtained:
HIFPH2 (EGLN1) = HIFPH2 (EGLN1) (Homo sapiens (Human), UniProt Q9GZT9); assay: EGLN-1 Activity Assay (MALDI-TOF MS); assay type: biochemical; details: recombinant human EGLN-1-179/426, HIF-1α peptide 556-574
Procedure: The enzyme, quantity predetermined to hydroxylate 20% of substrate in 20 minutes, is added to start the reaction. Where inhibitors are used, compounds are prepared in dimethyl sulfoxide at 10-fold final assay concentration. After 20 minutes at room temperature, the reaction is stopped by transferring 10 μL of reaction mixture to 50 μL of a mass spectrometry matrix solution (α-cyano-4-hydroxycinnamic acid, 5 mg/mL in 50% acetonitrile/0.1% TFA, 5 mM NH4PO4). Two microliters of the mixture is spotted onto a MALDI-TOF MS target plate for analysis with an Applied Biosystems (Foster City, Calif.) 4700 Proteomics Analyzer MALDI-TOF MS equipped with a Nd:YAG laser (355 nm, 3 ns pulse width, 200 Hz repetition rate). Hydroxylated peptide product is identified from substrate by the gain of 16 Da. Data defined as percent conversion of substrate to product is analyzed in GraphPad Prism 4 to calculate IC50 values.

[1] = system: phosphoglycerate kinase (PGK) expression; assay: PGK expression in murine embryonic fibroblasts; assay type: cell-based; details: 1 μM, 10 μM, vs wild type control (FIG. 12)
Procedure: FIG. 11 depicts the up regulation of phosphoglycerate kinase (PGK) expression in wild type murine embryonic fibroblasts as a result of treatment with a compound disclosed in Table VIII at dosages of 1 μM (E), 10 μM (F), and 50 μM (G) vs. wild type control (H) and the lack of up regulation of PGK expression in HIF-1 knock out cells as a result of treatment with a compound disclosed in Table VIII at dosages of 1 μM (A), 10 μM (B), and 50 μM (C) and HIF-1 knock out control (D). Both cell types were treated for 7 hours.

[2] = Solubility of pharmaceutically acceptable salts in water; assay type: physicochemical; details: distilled deionized water, sonicated 20 min, under 25° C., HPLC
Procedure: The formulator can determine the solubility of the pharmaceutically acceptable salts of the disclosed inhibitors by any method desirable. The following is a non-limiting example of a procedure for evaluating the solubility of a salt of a disclosed inhibitor. A suspension of tert-butyl-{[1-(4-chlorobenzyl)-3-hydroxy-2-oxo-1,2-dihydropyridin-4-yl]methyl}-piperazine-1-carboxylate methanesulfonate (26.6 mg) in distilled deionized water (3.0 mL) is sonicated for 20 min with water bath temperature under 25° C. The suspension is filtered to remove any insoluble salt. The clear filtrate solution (200 μL) is diluted with distilled deionized water (800 μL) and subjected to HPLC analysis. The following are results for the pharmaceutically acceptable salts outlined in Table VII above.

Sequence of HIFPH2 (EGLN1) (Q9GZT9 179-426): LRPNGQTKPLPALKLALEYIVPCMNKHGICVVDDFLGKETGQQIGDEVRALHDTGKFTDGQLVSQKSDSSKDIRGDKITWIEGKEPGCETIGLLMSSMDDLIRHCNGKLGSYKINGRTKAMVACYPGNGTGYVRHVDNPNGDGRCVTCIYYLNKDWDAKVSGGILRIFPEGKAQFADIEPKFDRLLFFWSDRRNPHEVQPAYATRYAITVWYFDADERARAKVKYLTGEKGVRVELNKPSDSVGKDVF

SMILES | IC50 (HIFPH2 (EGLN1)) [µM] | Solubility [2] [µg/mL] | also measured
O=c1c(O)c(CN2CCN(Cc3ccccc3)CC2)ccn1Cc1ccccc1 [Compound B9, 1-benzyl-3-hydroxy-4-[(4-benzylpiperazin-1-yl)methyl]pyridin-2(1H)-one] | 17 |  | 
O=c1c(O)c(CNCc2ccccc2)ccn1Cc1ccc(Cl)cc1 [Compound C1, 1-(4-chlorobenzyl)-3-hydroxy-4-[(4-benzylamino)methyl]pyridin-2(1H)-one] | 12 |  | 
O=c1c(O)cccn1Cc1cccc(Cl)c1 [Compound F2, 1-(3-chlorobenzyl)-3-hydroxypyridin-2(1H)-one] |  |  | PGK expression in wild type murine embryonic fibroblasts [1]: up regulation
CC(C)(C)OC(=O)N1CCN(Cc2ccn(Cc3ccc(Cl)cc3)c(=O)c2O)CC1 [Compound A41] |  | ~1 | 
CC(C)(C)OC(=O)N1CCN(Cc2ccn(Cc3ccc(Cl)cc3)c(=O)c2O)CC1.CS(=O)(=O)O [methanesulfonate, tert-butyl-{[1-(4-chlorobenzyl)-3-hydroxy-2-oxo-1,2-dihydropyridin-4-yl]methyl}-piperazine-1-carboxylate methanesulfonate] |  | 16600 | 
